Results published in patent publication US20150119400A1, “METHODS FOR TREATING HCV” (priority 2013, published 2015).
Where two headings read alike, the source gives them in different places.

Assays:
[1] = system: HCV stable subgenomic replicons containing NS3 genes from GT 1a, 1b, 2a, 3a, 4a, or 6a; assay: HCV stable subgenomic replicon panel, summary statements over several genotypes; format: cell-based; details: Hepatitis C virus
[2] = system: GT1b subgenomic replicon NS3 variants; assay: Resistant colony selection and variant susceptibility, GT1b subgenomic replicon cells; format: cell-based, Hepatitis C virus; details: A156V in GT1b
From the text: (§1) The inhibitory effects of the compounds of the invention on HCV replication can also be determined by measuring activity of the luciferase reporter gene encoded by subgenomic replicons not containing the Neo selectable marker, that are transiently expressed in cells. The adaptive mutations encoded by the 1a-H77, 1b-N and 1b-Con-1 replicons are the same as listed above. The 1b-Con1 replicon used for these transient assays contains the NS2-NS5B coding region rather than the NS3-5B coding region. These replicons may encode target NS3 genes as described for stable subgenomic replicons or they may encode amino acid variants that confer varying degrees of susceptibility to the drug. For example, variants could include R155K, D168E or D168V in a genotype 1a NS3 gene; R155K or D168V in a genotype 1b NS3 gene; S138T, A166T or Q168R in a genotype 3a NS3 gene. For example, cells can be transfected with the replicon by electroporation and seeded into 96 well plates at a density of 5000 cells per well in 100 μl DMEM containing 5% FBS. […] Luciferin solution (100 μl, Promega) can be added to each well, and luciferase activity can be measured with a luminometer. The percent inhibition of HCV RNA replication can be calculated for each compound concentration and the EC50 value can be calculated using nonlinear regression curve fitting to the 4-parameter logistic equation and GraphPad Prism 4 software. […]

[3] = system: replicon containing GT3a NS3 protease, variants; assay: Resistant colony selection and variant susceptibility, replicon containing GT3a NS3 protease; format: cell-based, Hepatitis C virus
From the text: The inhibitory effects of the compounds of the invention on HCV replication can also be determined by measuring activity of the luciferase reporter gene encoded by subgenomic replicons not containing the Neo selectable marker, that are transiently expressed in cells. The adaptive mutations encoded by the 1a-H77, 1b-N and 1b-Con-1 replicons are the same as listed above. The 1b-Con1 replicon used for these transient assays contains the NS2-NS5B coding region rather than the NS3-5B coding region. These replicons may encode target NS3 genes as described for stable subgenomic replicons or they may encode amino acid variants that confer varying degrees of susceptibility to the drug. For example, variants could include R155K, D168E or D168V in a genotype 1a NS3 gene; R155K or D168V in a genotype 1b NS3 gene; S138T, A166T or Q168R in a genotype 3a NS3 gene. For example, cells can be transfected with the replicon by electroporation and seeded into 96 well plates at a density of 5000 cells per well in 100 μl DMEM containing 5% FBS. Compounds diluted in dimethyl sulfoxide (DMSO) to generate a 200× stock in a series of eight half-log dilutions can then be further diluted 100-fold in the medium containing 5% FBS and added to the cell culture plates already containing 100 μl of DMEM with 5% FBS. After an incubation period of either 3 or 4 days, 30 μl of Passive Lysis buffer (Promega) can be added to each well, with incubation for 15 minutes with rocking to lyse the cells. Luciferin solution (100 μl, Promega) can be added to each well, and luciferase activity can be measured with a luminometer. The percent inhibition of HCV RNA replication can be calculated for each compound concentration and the EC50 value can be calculated using nonlinear regression curve fitting to the 4-parameter logistic equation and GraphPad Prism 4 software.
Resistant colony selection studies in GT1a and 1b subgenomic replicon cells identified A156T in GT1a and A156V in GT1b as the most frequent variants, which conferred 1400- and 1800-fold reduced susceptibility to Compound 1, respectively. […]

[4] = system: GT1a subgenomic replicon NS3 variants; assay: Resistant colony selection and variant susceptibility, GT1a subgenomic replicon cells; format: cell-based, Hepatitis C virus; details: A156T in GT1a
From the text: as §1

[5] = system: HCV genotype 6a replicon; assay: HCV subgenomic stable replicon cell culture assay (luciferase), genotype 6a; format: cell-based; details: Hepatitis C virus; bound stated in description, plasma not stated; read-out: EC50 value against HCV genotype 6a

## CC(C)(C)[C@@H]1NC(=O)O[C@@H]2CCC[C@H]2OC/C=C/C(F)(F)c2nc3ccccc3nc2O[C@@H]2C[C@@H](C(=O)N[C@]3(C(=O)NS(=O)(=O)C4(C)CC4)C[C@H]3C(F)F)N(C2)C1=O [Compound 1]
[1]; bound stated for all six genotypes, read-out: EC50 value against HCV genotype 1a, 1b, 2a, 3a, 4a, and 6a
  EC50: < 3 nM
[1]; genotype 1a and 1b, 0% Human Plasma, 5% FBS, read-out: mean EC50 values, range over genotype 1a and 1b replicons
  EC50: 0.85 to 0.94 nM
[1]; genotype 1a and 1b, 40% Human Plasma, 5% FBS, read-out: mean EC50 values, range over genotype 1a and 1b replicons
  EC50: 5 to 10 nM
[1]; genotype 2a, 3a, 4a, 6a, 0% Human Plasma, 5% FBS, read-out: mean EC50 values, range over genotype 2a, 3a, 4a, and 6a replicons
  EC50: 0.86 to 2.8 nM
[2]
  fold reduced susceptibility conferred by variant: 1800 fold
[3]; A156G alone
  fold loss in susceptibility conferred by variant: 1500 fold
[3]; Q168R co-selected with Y56H
  fold loss in susceptibility conferred by variant: 1100 fold
[3]; concentrations ≧100-fold over its EC50 value
  resistant colonies selected: very few colonies
[4]
  fold reduced susceptibility conferred by variant: 1400 fold
[5]
  EC50: < 1 nM
